Article PMC8041284, “Tunable Methacrylamides for Covalent Ligand Directed Release Chemistry” (Journal of the American Chemical Society, 2021)
Where two headings read alike, the source gives them in different places.

Target: BTK (Homo sapiens, UniProt Q06187)
Assay: biochemical
[1] = read-out: BTK inhibition (%), 0.75 uM BTK, […] probe 3l, 15 min preincubation

Sequence of BTK (Q06187 402-655 limits assumed): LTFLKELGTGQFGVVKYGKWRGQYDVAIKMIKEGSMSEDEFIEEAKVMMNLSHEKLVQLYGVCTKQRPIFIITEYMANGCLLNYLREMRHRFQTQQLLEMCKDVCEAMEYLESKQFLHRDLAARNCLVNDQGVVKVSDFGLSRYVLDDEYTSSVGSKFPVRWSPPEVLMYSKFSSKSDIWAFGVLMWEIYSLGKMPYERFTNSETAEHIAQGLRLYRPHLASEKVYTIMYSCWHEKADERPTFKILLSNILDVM

Structure (SMILES)	inhibition at 10 µM [1] [%]	inhibition at 10 µM (read-out: BTK inhibition (%)) [%]
COc1cc(CO)ccc1O [PCM-0215042]	0	
C[C@@H](c1ccc2nccn2c1)n1nnc2ncc(-c3cnn(C)c3)nc21 [PCM-0215934]	-9.3	
CC(=O)O[C@@H]1C[C@H](C)CC[C@H]1C(C)C [PCM-0216217]	13.1	
CC(C[N+](C)(C)C)OC(N)=O (stereo not shown) [PCM-0064662]	-7	
COc1cc(C(=O)NC2CCCNC2)cc(OC)c1OC (stereo not shown) [PCM-0214753]	-3.1	
O=C1Cc2c([nH]c3ccc(Br)cc23)-c2ncccc2N1 [PCM-0215289]	-2.1	
CO[C@H]1O[C@H](COS(=O)(=O)O)[C@@H](O[C@@H]2O[C@@H](C(=O)O)[C@@H](O[C@H]3O[C@H](COS(=O)(=O)O)[C@@H](O[C@@H]4O[C@H](C(=O)O)[C@@H](O[C@H]5O[C@H](COS(=O)(=O)O)[C@@H](O)[C@H](O)[C@H]5NS(=O)(=O)O)[C@H](O)[C@H]4O)[C@H](OS(=O)(=O)O)[C@H]3NS(=O)(=O)O)[C@H](O)[C@H]2OS(=O)(=O)O)[C@H](O)[C@H]1NS(=O)(=O)O [PCM-0215897]	-13.6	
CC(=O)N1CCC(Nc2cc(C(=O)NC[C@H](O)CN3CCc4ccccc4C3)ncn2)CC1 [PCM-0215901]	-0.8	
O=C(O)CC(C(=O)O)n1c(O)c(C2=c3cc(Br)ccc3=NC2=O)sc1=S (stereo not shown) [PCM-0216114]	3.1	
C[C@@H]1O[C@@H](O[C@H]2[C@H](O[C@H]3CC[C@@]4(C)[C@@H](CC[C@]5(C)[C@@H]4CC=C4[C@@H]6CC(C)(C)CC[C@]6(C(=O)O[C@@H]6O[C@H](CO[C@@H]7O[C@H](CO)[C@@H](O[C@@H]8O[C@@H](C)[C@H](O)[C@@H](O)[C@H]8O)[C@H](O)[C@H]7O)[C@@H](O)[C@H](O)[C@H]6O)CC[C@]45C)[C@]3(C)CO)OC[C@H](O)[C@@H]2O)[C@H](O)[C@H](O)[C@H]1O [PCM-0215008]	-10.1	
COc1cc(C[C@H](C)[C@H](C)Cc2ccc3c(c2)OCO3)ccc1O [PCM-0216424]	68.7	
Cc1ccc2c(c1)c1c(n2CCc2ccc(C)nc2)CCN(C)C1 [PCM-0095683]	6.2	
CN(C)c1ccc2nc3c(C(=O)O)cc(=O)c(O)c-3oc2c1 [PCM-0216583]	88	
C[C@@H]1O[C@@H](O[C@H]2[C@H](O[C@H]3C[C@]4(C)[C@H](C[C@@H](O)[C@@H]5[C@@H]([C@]6(C)CC[C@H](C(C)(C)O)O6)CC[C@]54C)[C@@]4(C)CC[C@H](O)C(C)(C)[C@H]34)O[C@H](CO)[C@@H](O)[C@@H]2O)[C@H](O)[C@H](O)[C@H]1O [PCM-0216458]	1.5	
CC(C)(c1ccc(OCC(O)CO)cc1)c1ccc(OCC(O)CCl)cc1 (stereo not shown) [PCM-0215567]	-2.3	
O=C(O)CCCCCCCCCO [PCM-0216560]		14.7
CCCN=C1S/C(=C\c2ccc(OC[C@H](O)CO)c(Cl)c2)C(=O)N1c1ccccc1C [PCM-0215632]	9	
CCS(=O)(=O)N1CCN(c2ccc(Nc3ncc(C(N)=O)c(NC4CC4)n3)cc2)CC1 [PCM-0215389]	85.5	
O=C(O)c1ccc(C=C2SC(=S)N(c3cccc(C(F)(F)F)c3)C2=O)cc1 [PCM-0095759]	54.1	
Cc1[nH]c(/C=C2\C(=O)Nc3ccccc32)c(C)c1CCC(=O)O [PCM-0095149]	52.4	
C[C@H](N=C(NC#N)Nc1cccc2ncccc12)c1ccccc1 [PCM-0216092]	-13.1	
CC(C)c1ccc(NC(=O)Cn2cnc3c2c(=O)n(C)c(=O)n3C)cc1 [PCM-0095403]	-12.5	
CO/N=C(\C(=O)N[C@@H]1C(=O)N2C(C(=O)[O-])=C(C[n+]3cccc4c3CCCC4)CS[C@H]12)c1csc(N)n1 [PCM-0216083]	9.3	
C=CC(=O)Nc1cccc(Nc2nc(Nc3ccc(Oc4ccnc(C(=O)NC)c4)cc3)ncc2F)c1 [PCM-0215277]	115	
CC(=O)O[C@H]1C(=O)[C@]2(C)[C@H](O)C[C@H]3OC[C@@]3(OC(C)=O)[C@H]2[C@H](OC(=O)c2ccccc2)[C@]2(O)C[C@H](OC(=O)[C@H](O)[C@@H](NC(=O)c3ccccc3)c3ccccc3)C(C)=C1C2(C)C [PCM-0216508]	16.2	

Structure (SMILES)	inhibition at 10 µM [1] [%]	inhibition at 10 µM (read-out: BTK inhibition (%)) [%]
Cc1ccccc1CN1C(=O)C2=C(CCN(Cc3ccccc3)C2)N2CCN=C12 [PCM-0215534]		-13.8
CC(C)=CCc1cc2c(cc1O)oc(=O)c1c3ccc(O)cc3oc21 [PCM-0216176]	17.2	
Cn1c(-c2ccccc2C(F)(F)F)nnc1C12CCC(c3noc(C4CC(F)(F)C4)n3)(CC1)CC2 [PCM-0215687]	-17	
CC(=O)c1ccc(C)cc1O [PCM-0215921]	-6.9	
CN(C)c1cc(NC(=O)CNC(C)(C)C)c(O)c2c1C[C@H]1C[C@H]3[C@H](N(C)C)C(=O)C(C(N)=O)=C(O)[C@@]3(O)C(=O)C1=C2O [PCM-0214621]	32.7	
COC(=O)[C@@]1(C)CC[C@]2(C(=O)O)CC[C@]3(C)C(=CC[C@@H]4[C@@]5(C)C[C@H](O)[C@H](O)[C@@](C)(CO)[C@@H]5CC[C@]43C)[C@@H]2C1 [PCM-0216474]	-0.8	
COC(=O)N(C)c1c(N)nc(-c2nn(Cc3ccccc3F)c3ncccc23)nc1N [PCM-0215574]	-25.5	
CCCC(CCC)C(N)=O [PCM-0215111]	19.3	
COc1cc2nc(N(C)CCCNC(=O)C3CCCO3)nc(N)c2cc1OC (stereo not shown) [PCM-0064661]	1.6	
CCCCNc1ncc2c(-c3ccc(CN4CCN(C)CC4)cc3)cn(C3CCC(O)CC3)c2n1 (stereo not shown) [PCM-0215532]	55.9	
COc1ccc(C2=N[C@@H](c3ccc(Cl)cc3)[C@@H](c3ccc(Cl)cc3)N2C(=O)N2CCNC(=O)C2)c(OC(C)C)c1 [PCM-0094990]	14.5	
CCC1(c2ccccc2)C(=O)NCNC1=O [PCM-0065590]	-17.1	
COc1cc(CO)cc(OC)c1O [PCM-0215146]	-6.2	
COc1ccc(-c2cc(=O)c3c(O)c(OC)c(O)c(OC)c3o2)cc1 [PCM-0214999]	80.7	
NC(=O)CN1CC(c2ccccc2)CC1=O (stereo not shown) [PCM-0216067]		10
CC1(C)CC[C@]2(C(=O)O)[C@H](O)C[C@]3(C)C(=CC[C@@H]4[C@@]5(C)CC[C@H](O)C(C)(C)[C@@H]5CC[C@]43C)[C@@H]2C1 [PCM-0214984]	24.8	
Clc1ccccc1CN1CCc2sccc2C1 [PCM-0085848]	-2.6	
CCCCCC(=O)O[C@]1(C(C)=O)CC[C@H]2[C@@H]3CCC4=CC(=O)CC[C@]4(C)[C@H]3CC[C@@]21C [PCM-0214832]	-23.3	
CCC(C(=O)O)c1ccc(N2Cc3ccccc3C2=O)cc1 (stereo not shown) [PCM-0215153]	-18.5	
Nc1cccc(-c2cc3c(Oc4cccc(O)c4)ncnc3[nH]2)c1 [PCM-0095147]	82.1	
C/C=C/C=C/C(=O)O [PCM-0215158]	0	
NCCCC[C@@H]1NC(=O)[C@@H](Cc2ccccc2)NC(=O)[C@H](CC(=O)O)NC(=O)CNC(=O)[C@H](CCCN=C(N)N)NC1=O [PCM-0215471]	-10	
Cc1ccnc2c1NC(=O)c1cccnc1N2C1CC1 [PCM-0090346]	-3.1	
COc1ccc(O)cc1 [PCM-0090031]	12.5	
Cc1cc(/C(O)=C2\C(=O)C(=O)N(CCCN3CCOCC3)C2c2ccncc2)ccc1OCc1ccccc1 (stereo not shown) [PCM-0215180]	0	

Structure (SMILES)	inhibition at 10 µM [1] [%]	inhibition at 10 µM (read-out: BTK inhibition (%)) [%]
CC[C@H]1OC(=O)[C@H](C)[C@@H](O[C@H]2C[C@@](C)(OC)[C@@H](O)[C@H](C)O2)[C@H](C)[C@@H](O[C@@H]2O[C@H](C)C[C@H](N(C)C)[C@H]2O)[C@](C)(O)C[C@@H](C)C(=O)[C@H](C)[C@H]2OC(=O)O[C@@]21C [PCM-0215364]	-20.8	
NC(=O)NO [PCM-0065169]	10.9	
CN1CCN(c2ccc(C(=O)Nc3n[nH]c4ccc(Cc5cc(F)cc(F)c5)cc34)c(NC3CCOCC3)c2)CC1 [PCM-0215551]	103	
O=C(CCCCCCC(=O)Nc1ccccc1)NO [PCM-0086223]	-9	
COc1ccc(CCNCC(O)COc2cccc(C)c2)cc1OC (stereo not shown) [PCM-0216046]	-4.6	
O=C(Nc1cn[nH]c1-c1nc2ccc(CN3CCOCC3)cc2[nH]1)NC1CC1 [PCM-0094942]	93.8	
Cc1cccc(C)c1N(CC(=O)Nc1ccc(-c2ncon2)cc1)C(=O)C1CCS(=O)(=O)CC1 [PCM-0216196]	2.3	
CN(C)CCC(c1ccc(Cl)cc1)c1ccccn1 (stereo not shown) [PCM-0064500]	6.9	
N#CNC(=NCCCCCCOc1ccc(Cl)cc1)Nc1ccncc1 [PCM-0215563]	18.5	
Cc1c(OCC(F)(F)F)ccnc1C[S+]([O-])c1nc2ccccc2[nH]1 (stereo not shown) [PCM-0065586]	-3.9	
CC1(C)CCCC2(C)OC(=O)C=C12 (stereo not shown) [PCM-0214965]	8.6	
O=c1c(-c2ccc(O)cc2)coc2cc(O)ccc12 [PCM-0065064]	-7.8	
N=C1CCCN1Cc1[nH]c(=O)[nH]c(=O)c1Cl [PCM-0214897]	-10.1	
Cc1[nH]c(/C=C2\C(=O)Nc3ccc(S(=O)(=O)Cc4c(Cl)cccc4Cl)cc32)c(C)c1C(=O)N1CCC[C@@H]1CN1CCCC1 [PCM-0095018]	35.2	
COc1ccc([C@H]2CNC(=O)C2)cc1OC1CCCC1 [PCM-0095307]	7	
COC(=O)c1c2c(c3ccccc3c1O)OC(C)(C)C=C2 [PCM-0216437]	-27	
O=S(=O)(NCCNC/C=C/c1ccc(Br)cc1)c1cccc2cnccc12 [PCM-0095146]	-22.8	
COc1ccc(CNc2nc(N3CCC[C@H]3CO)ncc2C(=O)NCc2ncccn2)cc1Cl [PCM-0095565]	-63.8	
Fc1ccc(CNc2ncnc3ccc(F)cc23)cc1 [PCM-0215554]	-17	
C=C(C)[C@@H]1CC[C@@]2(C)CCC(=O)C(C)=C2C1 [PCM-0216488]	-11.6	
Nc1ncnc2c1c(-c1cccc(OCc3ccccc3)c1)cn2C1CC(CN2CCCC2)C1 (stereo not shown) [PCM-0095055]	13.2	
CCN[C@H]1C[C@H](C)S(=O)(=O)c2sc(S(N)(=O)=O)cc21 [PCM-0086331]	10.2	
COc1cc(/C=C/C(=O)N2CCN(CC(=O)N3CCCC3)CC2)cc(OC)c1OC [PCM-0095532]	0	
